{"source": "paper PMC3271384", "about": "(Molecular Genetics and Metabolism, 2012)", "key": {"AGT-Ma": {"target": "T1, AGT-Ma (Homo sapiens, UniProt P21549, S158L)", "T1 sequence (P21549 1-392 S158L)": "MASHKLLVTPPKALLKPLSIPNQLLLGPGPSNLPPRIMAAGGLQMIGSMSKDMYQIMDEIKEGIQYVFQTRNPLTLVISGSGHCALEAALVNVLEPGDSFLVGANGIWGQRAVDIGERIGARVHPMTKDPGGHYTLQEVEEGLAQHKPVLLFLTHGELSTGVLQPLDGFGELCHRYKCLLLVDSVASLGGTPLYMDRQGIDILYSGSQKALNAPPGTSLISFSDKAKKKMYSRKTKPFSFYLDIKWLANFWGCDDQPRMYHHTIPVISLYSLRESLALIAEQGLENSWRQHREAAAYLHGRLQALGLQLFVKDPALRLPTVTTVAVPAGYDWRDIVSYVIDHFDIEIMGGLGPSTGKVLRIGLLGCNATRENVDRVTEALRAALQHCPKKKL", "assay": "CD signal at […] nm titration of apoenzyme", "format": "binding"}, "AGT-Mi": {"target": "T2, AGT-Mi (Homo sapiens, UniProt P21549, G350D/I340M/P11L)", "T2 sequence (P21549 1-392 P11L/I340M/G350D)": "T1 sequence (P21549 1-392 S158L) with P11L, L158S, I340M, G350D", "assay": "quenching of intrinsic fluorescence of apoenzyme", "format": "binding"}}, "note": "Substitutions are numbered along the chain they refer to.", "data": [{"smiles": "Cc1ncc(COP(=O)(O)O)c(C=O)c1O", "note": "[PLP]", "values": [{"measurement": "Kd", "setting": "AGT-Ma", "value": "272 ± 47", "unit": "µM"}, {"measurement": "Kd", "setting": "AGT-Mi", "value": "0.031 ± 0.005", "unit": "µM"}]}]}
